Results as given in article PMC11241437, “Structure-Based Analysis of Cefaclor Pharmacokinetic Diversity According to Human Peptide Transporter-1 Genetic Polymorphism” (International Journal of Molecular Sciences, 2024).

Tests used:
[1] = clinical; settings: male, human, in vivo, po, 250 mg
Protocol: Cefaclor bioequivalence results in 24 healthy Korean men obtained from a previous study were reused for the analysis of cefaclor pharmacokinetics according to PEPT1 genetic polymorphisms in this study. Among the previous bioequivalence results, those for the test formulation were excluded, and only the clinical results for the reference drug, cefaclor 250 mg capsule (Eli Lilly and Company, Indianapolis, IN, USA; Lot number: L1692Y1) were used. […] Table S2 presents the demographic information of the subjects, including physiological and biochemical parameters. The determination of clinical biochemical parameter values was performed by serological analysis through a dry automated analyzer. The analytical instrument was a microside VITROS (Ortho Clinical Diagnostics, Raritan, NJ, USA) operated by reflectance spectrophotometry. Information on the selection and progress of clinical trial participants is presented in Supplementary Information S1, and information on clinical trial design and sampling is presented in Supplementary Information S2. The clinical trial protocol was thoroughly reviewed and officially approved (approval number: 112; 09.03.2004) by the Institutional Review Board of the Institute of Bioequivalence and Bridging Study (Gwangju, Republic of Korea). Information on the high-performance liquid chromatography-ultraviolet (HPLC-UV) method used to quantify cefaclor in plasma samples is briefly presented in Supplementary Information S3.
Genetic polymorphism information for all subjects participating in the clinical trial could be obtained using blank plasma samples derived from each subject. The genetic information targeted in this study was SLC15A1 exons 5 and 16 as the PEPT1 coding gene. SNPs in SLC15A1 exons 5 and 16 were analyzed through pyrosequencing and restriction fragment length polymorphism (RFLP) via polymerase chain reaction (PCR), respectively. The target SNPs in SLC15A1 exons 5 and 16 were c.381G>A and c.1287G>C, respectively, and the genetic polymorphism analysis methods for these were presented in Supplementary Information S4.
The results of the analysis of plasma concentration over time after single oral administration of cefaclor 250 mg capsule could be calculated as cefaclor pharmacokinetic parameter values through non-compartmental analysis (NCA). NCA was performed using Phoenix WinNonlin software (version 8.4, Certara Inc., Princeton, NJ, USA). The main calculated pharmacokinetic parameters are area under the curve in a plasma concentration-time graph (AUC), clearance (CL/F), peak plasma drug concentration after administration (Cmax), elimination half-life (T1/2), mean residence time (MRT), time to reach Cmax (Tmax), and volume of the distribution (V/F). Specific calculation methods for pharmacokinetic parameters are presented in Supplementary Information S5. The calculated pharmacokinetic parameter values were classified according to the genetic polymorphisms of SLC15A1 exons 5 and 16 and compared between genotype groups. Comparison of significant differences between the three genotype groups (SLC15A1 exon 5) was performed using one-way analysis of variance (ANOVA), and comparison of significant differences between two genotype groups (SLC15A1 exon 16) was performed using a two-tailed t test. All significance judgments in statistical tests were based on a p value of 0.05. Additionally, differences in pharmacokinetics between groups were confirmed through a graphic comparison of cefaclor plasma concentration profiles between genotypes classified according to genetic polymorphisms of SLC15A1 exons 5 and 16.
Supplementary Information S2
Clinical trial design and sampling
This bioequivalence study was performed as randomized, single-dose, open-label, crossover, and two-way studies (with a washout period of 7 days). Prior to the clinical trial, subjects had a heparin-locked (150 unit/mL) JELCO 22G angio-catheter (Smiths Medical, Minneapolis, […]

[2] = test system: PEPT1; design: method as in PMID 9950279; settings: Caco-2; cited from earlier work
[3] = type: in vitro ADME; settings: human
Protocol: Supplementary Information S3
Determination of cefaclor plasma concentrations
Concentrations of unchanged cefaclor in plasma were determined by applying high performance liquid chromatography coupled with an ultraviolet (HPLC-UV), which has been established and validated in previous studies. The LC10 ADvp system (Shimadzu Inc., Kyoto, Japan) was used as an analysis device. Briefly describing the analysis method, plasma samples were pretreated through liquid-liquid extraction using 6% (v/v) trichloroacetic acid and then selectively separated on a Symmetry C18 column (5 μm, 4.6 × 150 mm; Waters Co., Milford, MA, USA) using water (mobile phase A) and methanol (mobile phase B) as mobile phases.
The composition ratio of mobile phases A and B was isocratically eluted at 88:12 (v/v), and the quantification of cefaclor was performed at a wavelength of 265 nm. Cephradine, which has a similar structure to cefaclor, was used as an internal standard (IS), and the retention times in the column for cefaclor and IS were 15 min and 23 min, respectively. The lower limit of quantification was 0.1 μg/mL, and the linear calibration curve was secured with a coefficient of determination of 0.99 or higher up to the concentration range of 10 μg/mL. The […]
calibration curve. […]

| Structure (SMILES) | substrate interaction with PEPT1 [2] | other results |
| --- | --- | --- |
| N[C@@H](C(=O)N[C@@H]1C(=O)N2C(C(=O)O)=C(Cl)CS[C@H]12)c1ccccc1 [cefaclor] | interaction substrate with PEPT1 | AUC ([1]; AUCall): 7590 ± 1520 ng·h/mL; AUC(0-inf) ([1]; AUCinf): 7740 ± 1530 ng·h/mL; Cmax ([1]; Cmax): 6510 ± 1900 ng/mL; MRT ([1]; MRT (mean residence time)): 75.6 ± 11.4 min; half-life ([1]; T1/2 (elimination half-life)): 36 ± 3.6 min; Tmax ([1]; Tmax): 49.2 ± 21 min |
| CC1=C(C(=O)O)N2C(=O)[C@@H](NC(=O)[C@H](N)c3ccc(O)cc3)[C@H]2SC1 [cefadroxil] | may have substrate interactions with PEPT1 |  |
| Cn1nnnc1SCC1=C(C(=O)O)N2C(=O)[C@@H](NC(=O)[C@H](O)c3ccccc3)[C@H]2SC1 [cefamandole] | may have substrate interactions with PEPT1 |  |
| C=CC1=C(C(=O)O)N2C(=O)[C@@H](NC(=O)/C(=N\OCC(=O)O)c3csc(N)n3)[C@H]2SC1 [cefixime] | may have substrate interactions with PEPT1 |  |
| CO/N=C(\C(=O)N[C@@H]1C(=O)N2C(C(=O)O)=C(COC(N)=O)CS[C@H]12)c1ccco1 [cefuroxime] | may have substrate interactions with PEPT1 |  |
| CC1=C(C(=O)O)N2C(=O)[C@@H](NC(=O)[C@H](N)c3ccccc3)[C@H]2SC1 [cephalexin] | may have substrate interactions with PEPT1 |  |
| CC(=O)OCC1=C(C(=O)O)N2C(=O)[C@@H](NC(=O)Cc3cccs3)[C@H]2SC1 [cephalotin] | may have substrate interactions with PEPT1 |  |
| CC1=C(C(=O)O)N2C(=O)[C@@H](NC(=O)[C@H](N)C3=CCC=CC3)[C@H]2SC1 [cephradine] | may have substrate interactions with PEPT1 | stabilities in plasma samples [3]: 85-115% |
